Data from publication PMC12054212 (BMC Microbiology, 2025).

Tests used:
Metallo-L1 β-lactamase [1] = target: T1, Metallo-L1 β-lactamase (Stenotrophomonas maltophilia, UniProt B2FTM1); experiment: nitrocefin hydrolysis inhibition assay, absorbance at […] nm, […] enzyme; assay type: biochemical
Metallo-L1 β-lactamase [2] = target: T1, Metallo-L1 β-lactamase; experiment: nitrocefin hydrolysis inhibition assay, absorbance at […] nm, positive control; assay type: biochemical

T1 sequence (B2FTM1 22-290): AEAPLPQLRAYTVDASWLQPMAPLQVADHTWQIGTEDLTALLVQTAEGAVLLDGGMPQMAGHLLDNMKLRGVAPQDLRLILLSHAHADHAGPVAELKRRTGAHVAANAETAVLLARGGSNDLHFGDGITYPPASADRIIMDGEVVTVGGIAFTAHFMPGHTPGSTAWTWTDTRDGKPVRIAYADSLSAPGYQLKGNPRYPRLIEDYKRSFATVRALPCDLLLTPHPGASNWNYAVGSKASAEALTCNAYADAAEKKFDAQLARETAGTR

SMILES	IC50 (Metallo-L1 β-lactamase [1]) [µM]	IC50 (Metallo-L1 β-lactamase [2]) [µM]
Oc1c2ccccc2cc2cnc3ccccc3c12 [Benzo[j]phenanthridin-12-ol]	23	–
O=C(O)CN(CCN(CC(=O)O)CC(=O)O)CC(=O)O [EDTA]	–	2.24
